≈ marks a conversion by molar mass, not a printed value.
Test system: DR-Mtb strains
Assay: microbe, parasite or virus in culture
Format: cell-based
Details: Mycobacterium tuberculosis, read-out: MIC against all DR-Mtb strains

`COC(=O)c1cc(-c2cccc(NC(=O)Nc3ccc(Cl)c(Cl)c3)c2)on1` [4t, Methyl 5-(3-(3-(3,4-dichlorophenyl)ureido)phenyl)isoxazole-3-carboxylate] and `COC(=O)c1cc(-c2ccc(NC(=O)Nc3ccc(Cl)c(Cl)c3)cc2)on1` [4tb, Methyl 5-(4-(3-(3,4-dichlorophenyl)ureido)phenyl)isoxazole-3-carboxylate] cannot be ordered by MIC: 0.5 to 4 µg/mL (≈ 1.23 to 9.85 µM) for the first, 1 to 4 µg/mL (≈ 2.46 to 9.85 µM) for the second.

`COC(=O)c1cc(-c2cccc(NC(=S)Nc3ccc(Cl)cc3)c2)on1` [5f, Methyl 5-(3-(3-(4-chlorophenyl)thioureido)phenyl)isoxazole-3-carboxylate] was tested, and the MIC was 0.5 to 4 µg/mL (≈ 1.29 to 10.3 µM).
